Patent US4985595A, “Aminobenzamide derivatives” (Daiichi Pharmaceutical Co., Ltd., priority 1984, dated 1991)
Like-named read-outs stand apart in the source and are kept apart here.

Columns and labels:
stress ulcer in rat = test: Inhibitory effect on stress ulcer in rat (restraint and water-immersion stress method); format: in vivo; conditions: read-out: Inhibitory Effect (%)
Protocol: INHIBITORY EFFECT ON STRESS ULCER IN RAT
The compounds of this invention were administered orally to 7 rats weighing about 300 g in each group. After 30 minutes, they were immobilized and immersed in water at 21° C. for 7 hours to prepare the stress ulcer.

[1] = disclosed in Japanese Patent Application (OPI) No. 18947/81; cited from earlier work
in vivo = conditions: mouse, po, mice, orally administered, read-out: acute toxicity (LD50)
[2] = 50 mg/kg, oral, rat, 30 minutes before immobilization and immersion in water at 21° C. for 7 hours, *P < 0.05, **P < 0.01
[3] = 100 mg/kg, oral, rat, 30 minutes before immobilization and immersion in water at 21° C. for 7 hours, *P < 0.05, **P < 0.01
[4] = 200 mg/kg, oral, rat, 30 minutes before immobilization and immersion in water at 21° C. for 7 hours, *P < 0.05, **P < 0.01

Row | Compound | inhibition in vivo at 50 mg/kg (stress ulcer in rat; [2]) | inhibition in vivo at 100 mg/kg (stress ulcer in rat; [3]) | inhibition in vivo at 200 mg/kg (stress ulcer in rat; [4]) | chemical and physical properties (stability) [1] | LD50 (in vivo) | inhibition in vivo at 50 mg/kg (stress ulcer in rat; Rattus norvegicus, po, 7 h) | inhibition in vivo at 100 mg/kg (stress ulcer in rat; Rattus norvegicus, po, 7 h) | inhibition in vivo at 200 mg/kg (stress ulcer in rat; Rattus norvegicus, po, 7 h)
1 | CNC(=O)c1cc(OC)ccc1NCC(=O)NCCc1ccc(OC)c(OC)c1 [Compound g] | 45% | 41% | 65% |  |  |  |  | 
2 | COc1ccc(CCNC(=O)CNc2cccc(C(N)=O)c2)cc1OC.O.O.O [Control, 2-(3-carbamoylphenylamino)-N-(3,4-dimethoxyphenethyl)acetamide trihydrate] |  |  |  | stable chemical and physical properties |  |  |  | 
3 | COc1ccc(CCNC(=O)CNc2cccc(C(=O)N3CCOCC3)c2)cc1OC [Compound f, N(2-(3,4-Dimethoxyphenyl)ethyl)-2-((3-morpholinocarbonylphenyl)amino)acetmide] | 10% | 53% | 86% |  |  |  |  | 
4 | CCNC(=O)c1cccc(NCC(=O)NCCc2ccc(OC)c(OC)c2)c1 [Compound b, 3-((2-((2-(3,4-dimethoxyphenyl)ethyl)amino)-2-oxoethyl)amino)-N-ethylbenzamide] | 30% | 53% | 63% |  |  |  |  | 
5 | CNC(=O)c1cccc(NCC(=O)NCCc2ccc(OC)c(OC)c2)c1 [Compound a] | 46% | 60% | 72% |  |  |  |  | 
6 | COc1ccc(CCNC(=O)CNc2cccc(C(=O)N(C)C)c2)cc1OC [Compound e, 3((2-((2-(3,4-Dimethoxyphenyl)ethyl)amino)-2-oxoethyl)amino)-N,N-dimethylenzamide] | 39% | 55% | 64% |  |  |  |  | 
7 | CNC(=O)c1ccc(OC)cc1NCC(=O)NCCc1ccc(OC)c(OC)c1 [Compound c, 2-((2-((2-(3,4-dimethoxyphenyl)ethyl)amino)-2-oxoethyl)amino)-4-methoxy-N-methylbenzamide] | 33% | 36% | 69% |  | > 2000 mg/kg |  |  | 
8 | COc1ccc(CCNC(=O)CN(CS(=O)(=O)[O-])c2cccc(C(N)=O)c2)cc1OC.[Na+] |  |  |  |  | > 2000 mg/kg | 34% | 36% | 42%
